Experimental data as given in patent US10717699B1, “Crotonyl alcohol cassic acid ester with antibacterial activity and a method of preparing the same” (SOUTHWEST UNIVERSITY, priority 2020, dated 2020).
≈ marks a conversion by molar mass, not a printed value.

Legend:
Type in all cases: cell-based
[1] = system: vancomycin-resistant enterococci VRE 18-80,18-94; test: MIC by microbroth dilution method, VRE strains; details: 37° C., 20-22 hours
Source text: (§1) The minimal inhibitory concentration (MIC) of the compounds as determined by microbroth dilution method with gentamicin, cefazolin sodium and ceftriaxone sodium as positive control.
(§2) The experimental strains included methicillin-resistant Gram-positive bacteria: methicillin-resistant Staphylococcus aureus MRSA 18-222, 18-575; multiple drug-resistant […] bacteria: vancomycin-resistant enterococci VRE 18-80,18-94, multidrug-resistant Pseudomonas aeruginosa MDR-PA 18-1774,18-202, carbapenem-resistant Acinetobacter baumannii CR-AB 18-183,18-560. All the experimental strains were donated by Huashan Hospital affiliated to Fudan University (Institute of antibiotics, Fudan University) and used after routine identification.
(§3) Preparation of MHB medium: 20.0 g MHB medium was added to 1 L distilled water, boiled until completely dissolved, packed in conical bottles and sterilized at 121° C. for 15 min.
(§4) The experimental strain was cultured to the logarithmic growth phase: under aseptic condition, the experimental strain was inoculated into 100 mL MHB medium and incubated in a constant temperature and humidity incubator at 37° C. for 20-22 hours.
(§5) Preparation of storage solution: weigh the sample to be tested, dissolve it with 1% DMSO solution, prepare a storage solution with a concentration of 2560 μg/mL, weigh a positive reference substance, dissolve it with aseptic distilled water, and configure a storage solution with a concentration of 2560 μg/mL.
(§6) Preparation of bacterial suspension: under aseptic condition, the experimental strains cultured to logarithmic growth phase were adjusted to 0.5 MCF turbidity standard with MHB medium and diluted according to 1:10, and the bacterial suspension with concentration of 10^6 CFU/mL was prepared for standby.
(§7) Dilution of storage solution and inoculation of experimental strain: under aseptic condition, the storage solution was diluted to 256 μg/mL solution. Take a sterile 96-well plate, add 200 μL MHB medium to the 12th well, and add 100 μL MHB medium to each well. Add 100 μL of positive control solution to the first well, mix well, and suck 100 μL from it and discard. Add 100 μL of the compound sample solution to the second well, mix well, and then pipette 100 μL to the third well. After mixing, pipette 100 μL to the fourth well, and dilute to the 11th well in this way. Finally, 100 μL was pipetted from the 11th well and discarded. The 12th hole was the growth control without drugs. So far, the concentration of the positive reference substance is 128 μg/mL, the concentrations of the sample solution are 128, […], 8, 4, 2, 1, 0.5, 0.25 μg/mL respectively. Then, 10μL of the prepared bacterial suspension is added to each well, so that the final concentration of the bacterial liquid in each well is 5×10^5 CFU/mL.
(§8) Incubation: Cover the 96-well plate inoculated with the experimental strains, and incubate in a constant temperature and humidity box at 37° C. for 20-22 hours.

[2] = system: carbapenem-resistant Acinetobacter baumannii CR-AB 18-183,18-560; test: MIC by microbroth dilution method, CR-AB strains; details: 37° C., 20-22 hours
Source text: as §1, §2, §3, §4, §5, §6, §7, §8

[3] = system: multidrug-resistant Pseudomonas aeruginosa MDR-PA 18-1774,18-202; test: MIC by microbroth dilution method, MDR-PA strains; details: 37° C., 20-22 hours
Source text: as §1, §2, §3, §4, §5, §6, §7, §8

[4] = system: methicillin-resistant Staphylococcus aureus MRSA 18-222, 18-575; test: MIC by microbroth dilution method, MRSA strains; details: for Minimum bacteriostatic concentration: 37° C., 20-22 hours
Source text: as §1, §2, §3, §4, §5, §6, §7, §8

drug-resistant bacteria = test: Antibacterial activity test, summary over all experimental strains; details: summary of FIG. 1-6 and Table 1
Source text: as §1, §2, §3
The experimental strain was cultured to the logarithmic growth phase: under aseptic condition, the experimental strain was inoculated into 100 mL MHB medium and incubated in a constant temperature and humidity incubator at 37° C. for 20-22 hours. […]

In the case of C/C=C/COC(=O)c1cc(O)c2c(c1)C(=O)c1cccc(O)c1C2=O [Crotonyl alcohol cassic acid ester, (E)-but-2-en-1-yl 4,5-dihydroxy-9,10-dioxo-9,10-dihydroanthracene-2-carboxylate], the Minimum bacteriostatic concentration ([1]; strain VRE 18-80) is reported as >128 µg/mL, the Minimum bacteriostatic concentration ([1]; strain VRE 18-94) is reported as >128 µg/mL and the Minimum bacteriostatic concentration ([2]; strain CR-AB 18-183) is reported as >128 µg/mL. The Minimum bacteriostatic concentration ([2]; strain CR-AB 18-560) was >128 µg/mL, the Minimum bacteriostatic concentration ([3]; strain MDR-PA 18-174) was >128 µg/mL and the Minimum bacteriostatic concentration ([3]; strain MDR-PA 18-202) was >128 µg/mL. For the same molecule, the MIC ([4]; Staphylococcus aureus, drug-resistant Gram-positive bacteria MRSA, strain not given) was 4 µg/mL (≈ 11.8 µM), the Minimum bacteriostatic concentration ([4]; strain MRSA 18-222) was 4 µg/mL and the Minimum bacteriostatic concentration ([4]; strain MRSA 18-575) was 4 µg/mL.
With Cc1nnc(SCC2=C(C(=O)O)N3C(=O)[C@@H](NC(=O)Cn4cnnn4)[C@H]3SC2)s1 [Cefazolin sodium, cefazolin sodium] the Minimum bacteriostatic concentration ([1]; strain VRE 18-80) was 32 µg/mL, the Minimum bacteriostatic concentration ([1]; strain VRE 18-94) was >128 µg/mL and the Minimum bacteriostatic concentration ([2]; strain CR-AB 18-183) was >128 µg/mL. For the same molecule, the Minimum bacteriostatic concentration ([2]; strain CR-AB 18-560) was >128 µg/mL, the Minimum bacteriostatic concentration ([3]; strain MDR-PA 18-174) was 8 µg/mL and the Minimum bacteriostatic concentration ([3]; strain MDR-PA 18-202) was 128 µg/mL. The Minimum bacteriostatic concentration ([4]; strain MRSA 18-222) was >128 µg/mL and the Minimum bacteriostatic concentration ([4]; strain MRSA 18-575) was >128 µg/mL.
For gentamicin, the Minimum bacteriostatic concentration ([1]; strain VRE 18-80) was 0.0625 µg/mL, the Minimum bacteriostatic concentration ([1]; strain VRE 18-94) was >128 µg/mL and the Minimum bacteriostatic concentration ([2]; strain CR-AB 18-183) was >128 µg/mL. The Minimum bacteriostatic concentration ([2]; strain CR-AB 18-560) was >128 µg/mL, the Minimum bacteriostatic concentration ([3]; strain MDR-PA 18-174) was 0.0625 µg/mL and the Minimum bacteriostatic concentration ([3]; strain MDR-PA 18-202) was 0.0625 µg/mL. It also gave a Minimum bacteriostatic concentration ([4]; strain MRSA 18-222) of 128 µg/mL and a Minimum bacteriostatic concentration ([4]; strain MRSA 18-575) of 2 µg/mL.
With CO/N=C(\C(=O)N[C@@H]1C(=O)N2C(C(=O)O)=C(CSc3nc(=O)c(=O)[nH]n3C)CS[C@H]12)c1csc(N)n1 [Ceftriaxone sodium, ceftriaxone sodium] the Minimum bacteriostatic concentration ([1]; strain VRE 18-80) was 8 µg/mL, the Minimum bacteriostatic concentration ([1]; strain VRE 18-94) was >128 µg/mL and the Minimum bacteriostatic concentration ([2]; strain CR-AB 18-183) was >128 µg/mL. For the same molecule, the Minimum bacteriostatic concentration ([2]; strain CR-AB 18-560) was >128 µg/mL, the Minimum bacteriostatic concentration ([3]; strain MDR-PA 18-174) was 128 µg/mL and the Minimum bacteriostatic concentration ([3]; strain MDR-PA 18-202) was 16 µg/mL. For the same molecule, the Minimum bacteriostatic concentration ([4]; strain MRSA 18-222) was >128 µg/mL and the Minimum bacteriostatic concentration ([4]; strain MRSA 18-575) was >128 µg/mL.
For CC=CCO [Crotonyl alcohol, 2-butenol], the Minimum bacteriostatic concentration ([1]; strain VRE 18-80) was >128 µg/mL, the Minimum bacteriostatic concentration ([1]; strain VRE 18-94) was >128 µg/mL and the Minimum bacteriostatic concentration ([2]; strain CR-AB 18-183) was >128 µg/mL. The Minimum bacteriostatic concentration ([2]; strain CR-AB 18-560) was >128 µg/mL, the Minimum bacteriostatic concentration ([3]; strain MDR-PA 18-174) was >128 µg/mL and the Minimum bacteriostatic concentration ([3]; strain MDR-PA 18-202) was >128 µg/mL. The Minimum bacteriostatic concentration ([4]; strain MRSA 18-222) was >128 µg/mL, the Minimum bacteriostatic concentration ([4]; strain MRSA 18-575) was >128 µg/mL and the “inhibitory effect on drug-resistant bacteria” value (drug-resistant bacteria) was “no inhibitory effect”.
With O=C(O)c1cc(O)c2c(c1)C(=O)c1cccc(O)c1C2=O [Cassic acid] the Minimum bacteriostatic concentration ([1]; strain VRE 18-80) was >128 µg/mL, the Minimum bacteriostatic concentration ([1]; strain VRE 18-94) was >128 µg/mL and the Minimum bacteriostatic concentration ([2]; strain CR-AB 18-183) was >128 µg/mL. For the same molecule, the Minimum bacteriostatic concentration ([2]; strain CR-AB 18-560) was >128 µg/mL, the Minimum bacteriostatic concentration ([3]; strain MDR-PA 18-174) was >128 µg/mL and the Minimum bacteriostatic concentration ([3]; strain MDR-PA 18-202) was >128 µg/mL. For the same molecule, the Minimum bacteriostatic concentration ([4]; strain MRSA 18-222) was >128 µg/mL, the Minimum bacteriostatic concentration ([4]; strain MRSA 18-575) was >128 µg/mL and the “inhibitory effect on drug-resistant bacteria” value (drug-resistant bacteria) was “no inhibitory effect”.
